Data reported in US20240318160A1 (Wisconsin Alumni Research Foundation, priority 2023, published 2024).

Tests used:
Format in all cases: biochemical
[1] = system: Streptochaeta angustifolia SaPTAL-b, wild type; test: TAL and PAL enzyme kinetics; settings: PAL assay (L-Phe), pH 8.5, 30° C.
Method: (§1) A mixture containing 100 mM Tris-HCl (pH 8.5), 1% glycerol, and purified enzyme in a total volume of 50 μl was preincubated for 3 min at 30° C. […] The reactions were terminated by addition of 6N acetic acid (10 μl).
(§2) The kinetic parameters of the recombinant enzymes were determined using HPLC. Reaction mixtures containing 100 mM Tris-HCl (pH 8.5), 1% glycerol, and purified enzyme (0.15 μg for PAL assay and 1 μg for TAL assay) in a 50 μl total volume were preincubated for 3 min at 30° C. […] After 10 min and 20 min incubations for PAL and TAL assay, respectively, at 30° C., the reaction was terminated by addition of 6N acetic acid (10 μl). […] The products were quantified using calibration curves generated using authentic standards. Non-linear hyperbolic regression analyses were conducted using the Excel Solver tool to calculate Km and Vmax values.

[2] = system: Joinvillea ascendens JaPAL (SEQ ID NO: 28) variant JaPAL^F140H_MUT16 (F140H plus PTAL-type residues at 70, 102, 110, 112, 121, 129, 135, 138, 267, 271, 279 …); test: TAL and PAL enzyme kinetics; settings: PAL assay (L-Phe), pH 8.5, 30° C.
Method: (§3) To investigate the potential role of these residues in TAL activity, we generated two JaPAL mutant enzymes, one with PTAL-type substitutions in the 8 circle residues and the other with PTAL-type substitutions in both the circle and triangle residues (Table 4) in addition to the F140H mutation (JaPAL^F140H_MUT8 and JaPAL^F140H_MUT16, respectively).
as §1, §2

[3] = system: Joinvillea ascendens JaPAL (SEQ ID NO: 28) variant JaPAL^F140H_MUT8 (F140H plus PTAL-type residues at 102, 112, 121, 138, 267, 444, 448, 500); test: TAL and PAL enzyme kinetics
Method: as §3, §1, §2

[4] = system: Joinvillea ascendens JaPAL^F140H_MUT8 variant A448S; test: TAL and PAL enzyme kinetics; settings: PAL assay (L-Phe), pH 8.5, 30° C.
Method: (§4) To determine which of the 8 circle residues are essential in the conversion of PAL enzymes to PTAL enzymes (FIG. 3C), we mutated, one by one, each one of these 8 residues back to the PAL type in JaPAL^F140H_MUT8 and determined their effects on catalytic efficiency.
as §1, §2

[5] = system: Joinvillea ascendens JaPAL^F140H_MUT8 variant G121A; test: TAL and PAL enzyme kinetics; settings: PAL assay (L-Phe), pH 8.5, 30° C.
Method: as §4, §1, §2

[6] = system: Joinvillea ascendens JaPAL^F140H_MUT8 variant I102V; test: TAL and PAL enzyme kinetics; settings: PAL assay (L-Phe), pH 8.5, 30° C.
Method: as §4, §1, §2

[7] = system: Joinvillea ascendens JaPAL^F140H_MUT8 variant I122S (in Table 3; I112S in text); test: TAL and PAL enzyme kinetics; settings: PAL assay (L-Phe), pH 8.5, 30° C.
Method: as §4, §1, §2

[8] = system: Joinvillea ascendens JaPAL^F140H_MUT8 variant L138I; test: TAL and PAL enzyme kinetics; settings: PAL assay (L-Phe), pH 8.5, 30° C.
Method: as §4, §1, §2

[9] = system: Joinvillea ascendens JaPAL^F140H_MUT8 variant S267A; test: TAL and PAL enzyme kinetics; settings: PAL assay (L-Phe), pH 8.5, 30° C.
Method: as §4, §1, §2

[10] = system: Joinvillea ascendens JaPAL^F140H_MUT8 variant T444P; test: TAL and PAL enzyme kinetics; settings: PAL assay (L-Phe), pH 8.5, 30° C.
Method: as §4, §1, §2

[11] = system: Joinvillea ascendens JaPAL^F140H_MUT8 variant V500I; test: TAL and PAL enzyme kinetics; settings: PAL assay (L-Phe), pH 8.5, 30° C.
Method: as §4, §1, §2

[12] = system: Joinvillea ascendens JaPAL variant F140H/S112I (JaPAL^F140H_S112I), SEQ ID NO: 145; test: TAL and PAL enzyme kinetics; settings: PAL assay (L-Phe), pH 8.5, 30° C.
Method: (§5) To test this hypothesis further, the reciprocal S112I mutation was introduced into the JaPAL^F140H single mutant to generate the JaPAL^F140H_S112I double mutant. For comparison, a single mutant in which the residue corresponding to Ser112 was converted to Ile (i.e., JaPAL^S112I) was generated as well.
as §1, §2

[13] = system: Joinvillea ascendens JaPAL variant S112I (JaPAL^S112I), SEQ ID NO: 258; test: TAL and PAL enzyme kinetics; settings: PAL assay (L-Phe), pH 8.5, 30° C.
Method: as §5, §1, §2

[14] = system: PTAL^H140F mutants (SbPTAL^H123F, BdPTAL^H123F, SaPTAL-a^H118F, SaPTAL-b^H126F, EmoPTAL^H127F, JaPTAL^H125F); test: TAL and PAL enzyme kinetics, group of enzymes; settings: on average
From the text: To experimentally test the role of His 140 in the acquisition of TAL activity, we next conducted site-directed mutagenesis on the PAL and PTAL enzymes of grasses and non-grass graminids characterized above and analyzed their effects on TAL activity. For the PAL enzymes, the residue corresponding to Phe 140 was converted to His to generate JaPAL^F140H EmoPAL^F134H, BdPAL^F137H, and SbPAL^F135H. […] For the PTAL enzymes, the residue corresponding to His 140 was converted to Phe to generate SbPTAL^H123F, BdPTAL^H123F, SaPTAL-a^H118F, SaPTAL-b^H126F, EmoPTAL^H127F, and JaPTAL^H125F. […] Thus, unlike in the bacterial TAL enzyme (Watts et al., 2006), other residues besides the His 140 are likely important for the acquisition of strong TAL activity in the PTAL enzymes of grasses and closely-related non-grass graminids.
The kinetic parameters of the recombinant enzymes were determined using HPLC. Reaction mixtures containing 100 mM Tris-HCl (pH 8.5), 1% glycerol, and purified enzyme (0.15 μg for PAL assay and 1 μg for TAL assay) in a 50 μl total volume were preincubated for 3 min at 30° C. PAL and TAL reactions were started by addition of 50 μl substrate solution prepared with 0-4 mM L-Phe and 0-2 mM L-Tyr. After 10 min and 20 min incubations for PAL and TAL assay, respectively, at 30° C., the reaction was terminated by addition of 6N acetic acid (10 μl). […] The products were quantified using calibration curves generated using authentic standards. Non-linear hyperbolic regression analyses were conducted using the Excel Solver tool to calculate Km and Vmax values.

[15] = system: PAL^F140H mutants (JaPAL^F140H, EmoPAL^F134H, BdPAL^F137H, SbPAL^F135H); test: TAL and PAL enzyme kinetics, group of enzymes; settings: PAL activity, on average
Method: as §2

grass PTAL enzymes = test: TAL and PAL enzyme kinetics, group of enzymes; settings: PAL activity (L-Phe), range over grass PTAL enzymes
Method: as §2

[16] = PAL assay (L-Phe), pH 8.5, 30° C.

SMILES: N[C@@H](Cc1ccccc1)C(=O)O [L-Phe, phenylalanine]
- kcat [1]: 0.56 ± 0.02 s⁻¹
- kcat/Km [1]: 2.46 ± 0.10 s⁻¹ mM⁻¹
- Km [2]: 455 ± 4.6 µM
- kcat [2]: 0.46 ± 0.01 s⁻¹
- kcat/Km [2]: 1.01 ± 0.0 s⁻¹ mM⁻¹
- Km for Phe relative to wild-type JaPTAL ([3]; PAL activity, higher than JaPTAL): 2 fold
- Km [3, 16]: 141 ± 6.3 µM
- kcat [3, 16]: 0.60 ± 0.01 s⁻¹
- kcat/Km [3, 16]: 4.25 ± 0.22 s⁻¹ mM⁻¹
- Km [4]: 168 ± 11.3 µM
- kcat [4]: 0.80 ± 0.03 s⁻¹
- kcat/Km [4]: 4.79 ± 0.43 s⁻¹ mM⁻¹
- Km [5]: 58.1 ± 3.4 µM
- kcat [5]: 0.57 ± 0.02 s⁻¹
- kcat/Km [5]: 9.88 ± 0.31 s⁻¹ mM⁻¹
- Km [6]: 232 ± 3.5 µM
- kcat [6]: 0.74 ± 0.01 s⁻¹
- kcat/Km [6]: 3.19 ± 0.08 s⁻¹ mM⁻¹
- Km [7]: 2.29 ± 0.344 mM
- kcat [7]: 0.29 ± 0.04 s⁻¹
- kcat/Km [7]: 0.31 ± 0.00 s⁻¹ mM⁻¹
- Km [8]: 74.3 ± 1.1 µM
- kcat [8]: 0.66 ± 0.01 s⁻¹
- kcat/Km [8]: 8.86 ± 0.01 s⁻¹ mM⁻¹
- Km [9]: 317 ± 6.6 µM
- kcat [9]: 0.85 ± 0.04 s⁻¹
- kcat/Km [9]: 2.67 ± 0.06 s⁻¹ mM⁻¹
- Km [10]: 192 ± 3.6 µM
- kcat [10]: 0.90 ± 0.05 s⁻¹
- kcat/Km [10]: 4.70 ± 0.22 s⁻¹ mM⁻¹
- Km [11]: 151 ± 3.7 µM
- kcat [11]: 0.82 ± 0.02 s⁻¹
- kcat/Km [11]: 5.45 ± 0.14 s⁻¹ mM⁻¹
- Km [12]: 67.3 ± 2.5 µM
- kcat [12]: 0.77 ± 0.01 s⁻¹
- kcat/Km [12]: 11.46 ± 0.21 s⁻¹ mM⁻¹
- Km [13]: 2600 ± 500 nM
- kcat [13]: 0.21 ± 0.04 s⁻¹
- kcat/Km [13]: 79.80 ± 0.00 s⁻¹ mM⁻¹
- kcat relative to wild type ([14]; PAL activity (Phe)): 0.25 fold
- Km toward Phe relative to corresponding wild-type enzymes ([14]; PAL activity): 0.04 fold
- Km toward Phe relative to corresponding wild-type enzymes [15]: 35 fold
- Km (grass PTAL enzymes): 150 to 227 µM
